The supplement of paper PMC8967900

How the values were obtained:
Assay in all cases: selective drug sensitivity score (sDSS, relative to normal bone marrow) (sDSS (score)); higher = more potent and effective on the cell line relative to normal bone marrow cells
Conditions in all cases: 72 h
LC4-1 = system: LC4-1
MN-60 = system: MN-60
PEER = system: PEER
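Note: ALL cell lines in 384-well plates, five doses spanning 10,000-fold, each plate scaled between vehicle and 100 µmol/L benzalkonium chloride controls, sDSS an adapted area-under-curve metric.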

Compound	selective drug sensitivity score (LC4-1)	selective drug sensitivity score (MN-60)	selective drug sensitivity score (PEER)
COc1cccc(OCCCN)c1-c1cc(Nc2cnc(C#N)cn2)n[nH]1 [Prexasertib] (top concentration 10000 nM)	19.6	4.24	17.9
C[C@]1(c2nc3c(C(N)=O)cccc3[nH]2)CCCN1 [Veliparib] (top concentration 10000 nM)	-4.18	-3.38	-4.18
NC[C@@](O)(c1ccc(Cl)cc1)c1ccc(-c2cn[nH]c2)cc1 (top concentration 10000 nM)	1.28	0.58	3.08
COc1ccc(Cn2ccc3ccc(C(=O)NO)cc32)cc1 (top concentration 10000 nM)	4.54	3.44	2.24
Cn1nccc1Nc1nccc(-c2ccn([C@H](CO)c3ccc(Cl)c(F)c3)c(=O)c2)n1 [Ravoxertinib] (top concentration 10000 nM)	7	-3.2	-0.3
COc1cccc2c1C(=O)c1c(O)c3c(c(O)c1C2=O)C[C@@](O)(C(=O)CO)C[C@@H]3O[C@H]1C[C@H](N)[C@H](O)[C@H](C)O1 [Doxorubicin] (top concentration 1000 nM)	5.48	-2.12	-3.62
O=C(Nc1cc(Oc2cc(F)c(NC(=O)C3(C(=O)Nc4ccc(F)cc4)CC3)cc2F)ccn1)C1CC1 [Altiratinib] (top concentration 10000 nM)	-0.36	-4.86	9.24
N#CCNC(=O)c1ccc(-c2ccnc(Nc3ccc(N4CCOCC4)cc3)n2)cc1 [Momelotinib] (top concentration 10000 nM)	-4.62	-7.22	1.08
Cc1ccc(C(=O)Nc2ccc(Oc3cc4cnn(C)c4cc3-c3cn[nH]c3)c(F)c2)c(=O)n1-c1ccc(F)cc1 [Merestinib] (top concentration 1000 nM)	-0.62	1.38	-0.22
COc1cc(N2CCC(N3CCN(C)CC3)CC2)ccc1Nc1ncc(Cl)c(Nc2ccccc2P(C)(C)=O)n1 [Brigatinib] (top concentration 1000 nM)	-0.94	-2.54	-3.34
CC(C)c1cc(-c2n[nH]c(=O)n2-c2ccc3c(ccn3C)c2)c(O)cc1O [Ganetespib] (top concentration 1000 nM)	1.44	-5.06	-1.86
C/C=C1\NC(=O)[C@H]2CSSCC/C=C/[C@H](CC(=O)N[C@H](C(C)C)C(=O)N2)OC(=O)[C@H](C(C)C)NC1=O [Romidepsin] (top concentration 1000 nM)	1.76	-4.94	2.06
CCCCc1nc2cc(/C=C/C(=O)NO)ccc2n1CCN(CC)CC [Pracinostat] (top concentration 10000 nM)	6.18	-1.42	3.98
COc1cc(Nc2ncc(F)c(Nc3ccc4c(n3)N(COP(=O)(O)O)C(=O)C(C)(C)O4)n2)cc(OC)c1OC [Fostamatinib] (top concentration 2500 nM)	2.56	-1.34	0.66
COC[C@H](NC(=O)c1cnc(C)s1)C(=O)N[C@@H](COC)C(=O)N[C@@H](Cc1ccccc1)C(=O)[C@@]1(C)CO1 [Oprozomib] (top concentration 2500 nM)	3.7	-4.3	12.5
COc1cc2c(Oc3ccc(NC(=O)C4(C(=O)Nc5ccc(F)cc5)CC4)cc3F)ccnc2cc1OCCCN1CCOCC1 [Foretinib] (top concentration 1000 nM)	2.04	-4.46	5.04
C[C@@H](Oc1ccc2[nH]nc(/C=C/c3cnn(CCO)c3)c2c1)c1c(Cl)cncc1Cl (top concentration 1000 nM)	1.36	-7.04	5.46
O=C(NC1CCNCC1)c1n[nH]cc1NC(=O)c1c(Cl)cccc1Cl [AT7519] (top concentration 10000 nM)	-4.26	-11.4	-3.56
CC(C)NC(=O)COc1cccc(-c2nc(Nc3ccc4[nH]ncc4c3)c3ccccc3n2)c1 [KD025] (top concentration 5000 nM)	6.44	-5.36	-1.56
CNC(=O)c1cc(Oc2ccc(NC(=O)Nc3ccc(Cl)c(C(F)(F)F)c3)cc2)ccn1 [Sorafenib] (top concentration 1000 nM)	0	0	0.1
CCn1c(C(=O)N(C2CC2)C2CC2)cc2c3c(ncn3C)c(Nc3cc(C)n(C)n3)nc21 (top concentration 10000 nM)	-4.36	-4.36	-4.36
Cc1ccc(C(=O)N(CCCN)[C@@H](c2oc3cc(Cl)ccc3c(=O)c2Cc2ccccc2)C(C)C)cc1 (top concentration 100 nM)	2.86	-1.84	4.96

Compound	selective drug sensitivity score (LC4-1)	selective drug sensitivity score (MN-60)	selective drug sensitivity score (PEER)
CC(C)(C)c1cnc(CSc2cnc(NC(=O)C3CCNCC3)s2)o1 [SNS-032] (top concentration 10000 nM)	-3.24	-8.64	-4.94
Cn1cncc1[C@@](N)(c1ccc(Cl)cc1)c1ccc2c(c1)c(-c1cccc(Cl)c1)cc(=O)n2C [Tipifarnib] (top concentration 10000 nM)	1.6	2	10
N#Cc1ccc(COC[C@H]2O[C@@H](n3c(NCc4ccc(Cl)c(Cl)c4)nc4c(N)ncnc43)[C@H](O)[C@@H]2O)cc1 (top concentration 10000 nM)	0.32	2.12	10.7
COCCNCc1ccc(-c2cc3nccc(Oc4ccc(NC(=S)NC(=O)Cc5ccc(F)cc5)cc4F)c3s2)nc1 [Glesatinib] (top concentration 2500 nM)	1.94	-1.96	4.54
CNC(=O)c1nn(C)c2c1C(C)(C)Cc1cnc(Nc3ccc(N4CCN(C)CC4)cc3)nc1-2 [Milciclib] (top concentration 10000 nM)	5.94	2.04	5.84
Cc1noc2c1-c1ccccc1C(c1ccc(Cl)cc1)=N[C@H]2CC(N)=O [CPI-0610] (top concentration 10000 nM)	3.6	6.9	-1.9
CC1=NN(c2ccc(C(=O)O)cc2)C(=O)C1=Cc1ccc(-c2cc(C)c(C)cc2[N+](=O)[O-])o1 [C646] (top concentration 25000 nM)	1.84	-2.06	-0.66
Cc1cc(-c2nc(-c3ccc(OC(F)(F)F)cc3)no2)nn1Cc1ccnc(N2CCN(C3CC3)CC2)c1 [BAY_87-2243] (top concentration 1000 nM)	3.84	25.6	27.4
Cc1cc(C(C)Nc2ccccc2)c2nc(N3CCOCC3)cc(=O)n2c1 (centres undefined) [TGX-221] (top concentration 10000 nM)	-1.64	-1.64	-0.74
Cc1ncc(-c2ccnc(Nc3ccc(S(C)(=O)=O)cc3)n2)n1C(C)C [AZD-5438] (top concentration 10000 nM)	0.44	-7.96	3.04
Cc1nc(Nc2ncc(C(=O)Nc3c(C)cccc3Cl)s2)cc(N2CCN(CCO)CC2)n1 [Dasatinib] (top concentration 1000 nM)	-2.8	-1.7	17.2
CCN1C(=O)CNc2ncc(-c3ccc(-c4nc[nH]n4)nc3C)nc21 [CC-115] (top concentration 10000 nM)	4.54	1.54	2.34
Sc1ncnc2nc[nH]c12 [Mercaptopurine] (top concentration 10000 nM)	17.1	6.6	6.7
CC1(C)OCCn2c1nc1c(N3CCOCC3)nc(-c3cnc(N)nc3)nc12 [GDC-0084] (top concentration 10000 nM)	4.2	5.2	2
CN1CC[C@H](c2c(O)cc(O)c3c(=O)cc(-c4ccccc4Cl)oc23)[C@H](O)C1 [Alvocidib] (top concentration 10000 nM)	-3.3	-3.9	-2.1
CNCc1ccc(-c2[nH]c3cc(F)cc4c3c2CCNC4=O)cc1 [Rucaparib] (top concentration 10000 nM)	0.32	-0.58	-0.08
Nc1ncn([C@@H]2O[C@H](CO)[C@@H](O)[C@H]2O)c(=O)n1 [Azacitidine] (top concentration 10000 nM)	6.04	0.84	6.64
COc1ccccc1S(=O)(=O)Nc1ccc2c(c1)CN(C)C(=O)N2 [PFI-1] (top concentration 30000 nM)	4.2	2.9	2.4
CS(=O)(=O)c1ccc(C(=O)Nc2ccc(Cl)c(-c3ccccn3)c2)c(Cl)c1 [Vismodegib] (top concentration 10000 nM)	5.26	-1.14	-0.94
CCc1nc(C(N)=O)c(Nc2ccc(N3CCC(N4CCN(C)CC4)CC3)c(OC)c2)nc1NC1CCOCC1 [Gilteritinib] (top concentration 1000 nM)	0.38	-2.52	-2.22
O=C(Nc1cccc(Nc2ncc(Br)c(NCCc3cnc[nH]3)n2)c1)N1CCCC1 [BX-912] (top concentration 10000 nM)	12.3	-1.44	10.6
